What is called IC50 is the point on the concentration scale where inhibition reaches its midpoint. High values mean a need for much substance, low ones inhibition by little substance. In general, AUC(0-t) refers to exposure summed from dosing to a finite time, without extrapolation to infinity. Low values mean less exposure, high ones more exposure. A word on the Cmax: it is the peak of the concentration-time curve. Usually MRT stands for the average time that molecules of a dose stay in the body. For orientation: Tmax means the time at which the peak concentration occurs. Usually half-life stands for the time needed for the level to fall by half in the phase considered. The low end stands for rapid decline, the high end for slow decline. What is called EC50 is the concentration needed to bring the measured effect to its halfway point.

In series [1] the target is interaction between PD-1 and PD-L1 (Homo sapiens (Human), UniProt Q9NZQ7). The series can be described thus: PD1-PDL1 HTRF binding activity test (Cisbio PD-1/PD-L1 binding assay kit). How it is done:
I. PD1-PDL1 HTRF Binding Activity Test
The effect of compounds of the examples of the present invention on the interaction between PD-1 and PD-L1 was determined by the PD-1/PD-L1 binding assay kit from Cisbio (#64ICP01PEG or 64ICP01PEH). The detailed experimental process was as follows: • 1. Pre-diluted compound solution, 4 μL of Tag1-PD-L1 and 4 μL of Tag2-PD1 were added to each well of a 384-well plate; • 2. After the mixture was incubated at room temperature for 15 min, 5 μL of anti-Tag1-Eu3+ antibody and 5 μL of anti-Tag2-XL665 antibody were then added; • 3. After incubated for 2 hrs at room temperature or overnight at 4° C., plates were read on Envision of Pelkin Elmer; and readings at 665 nm and 620 nm were recorded, and the ratio of the two readings was taken as a reading for each well; • 4. The reading of each well after compound treatment was compared with the reading of DMSO treated wells to obtain the percent inhibition of the compound; • 5. IC50 values of compounds and positive compounds of the examples of the present invention were determined by non-linear regression analysis of percent inhibition at different compound concentrations. II. Jurkat Reporter Gene Cellular Assay

Series [2] is described as follows: Pharmacokinetic assay in mice. Type of series: in vivo. Particulars: male, mouse; ICR mice, PO 10 mg/kg, plasma, original compound detected. How it is done:
III. Pharmacokinetic Assay in Mice
The purpose of this study was to study the pharmacokinetic behaviors of some compounds of the present invention, and administration routes were: per oral administration (PO) to ICR mice at a dose of 10 mg/kg.
The compounds used in this test came from the compounds of the specific examples of the present invention.
ICR mice, male, N=3, with the original source of Shanghai Sippr-BK Laboratory Animal Co. Ltd.
2.3 Preparation and Administration of Drug
The compounds were weighed, and dissolved in a solvent of 0.5% SDS+0.5% CMCNa. The mixture solutions were mixed well by shaking and ultrasonic treatment to obtain colorless clear solutions. The solutions were orally administered to nine mice after an overnight fast. The dosage of administration was 10 mg/kg.
1) With about 90 μL/time point, blood was drawn from the submaxillary vein, and heparin sodium was added for anticoagulation. The blood samples were placed onto the ice, and were centrifuged (centrifugation conditions: 8000 r/min, 6 min, 2-8° C.) within 1 hr to obtain plasmas.
2) The time points for blood sampling were at 0 hr, 0.25 hr, 0.5 hr, 1 hr, 2 hrs, 4 hrs, 6 hrs, 8 hrs and 24 hrs after administration. The samples were stored in a refrigerator at −20° C.
3) 40 μL of plasma sample was added to 160 μL of cold acetonitrile containing an internal standard, and the mixture solution was vortexed for 3 min and centrifuged at 11,000 r/min for 5 min.
4) 100 μL of supernate was taken and added to 100 μL of water, and 5 μL of the sample was taken and analyzed by LC/MS/MS.
Only the original compounds were analyzed for the compounds from the examples of the present invention and the reference compound from Example 158 of WO2020011209A1; and both the original compounds and possible products of ester hydrolysis, namely Example 217, were analyzed for the reference compound from Example 216 of WO2020011209A1.

The nature of series [3]: Jurkat reporter gene cellular assay. Particulars: Homo sapiens; Jurkat/NF-κB-luc/PD1 + Raji-PD-L1 coculture, OKT3 1 μg/mL, 6 hrs, activation fold; read-out: Cell Activity EC50. Type of series: cell-based. In short, it runs like this: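 Jurkat cells stably expressing human PD-1 and NF-κB-luciferase co-cultured with PD-L1-expressing Raji cells (5×10^4 each/well) under OKT3 (1 μg/mL final) with compound. Raji cells preincubated 20 min; luminescence read 6 h after Jurkat addition. EC50 from non-linear regression of fold activation over DMSO.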
On the technique in general: Reporter assays use an easily measured gene product as a stand-in for the process of interest.

Sequence of interaction between PD-1 and PD-L1 (Q9NZQ7 19-238): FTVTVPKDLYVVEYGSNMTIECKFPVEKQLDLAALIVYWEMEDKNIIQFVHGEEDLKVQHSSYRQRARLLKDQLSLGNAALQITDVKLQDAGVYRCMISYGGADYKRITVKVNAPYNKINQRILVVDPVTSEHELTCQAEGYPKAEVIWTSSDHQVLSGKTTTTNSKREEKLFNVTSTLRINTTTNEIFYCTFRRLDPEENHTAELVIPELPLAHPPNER

In turn, `Cc1c(/C=C(\F)c2nc3c(n2C)CCN(C(C)C)C3)cccc1-c1cccc(NC(=O)c2nc3c(n2C)CCN(CCC24CCC(C(=O)O)(CC2)C4)C3)c1C` [Example 1, (Z)-4-(2-(2-((3′-(2-fluoro-2-(5-isopropyl-1-methyl-4,5,6,7-tetrahydro-1H-imidazo[4,5-c]pyridin-2-yl)vinyl)-2,2′-dimethyl-[1,1′-biphenyl]-3-yl)carbamoyl)-1-methyl-1,4,6,7-tetrahydro-5H-imidazo[4,5-c]pyridin-5-yl)ethyl)bicyclo[2.2.1]heptane-1-carboxylic acid] displayed a 50% inhibitory concentration (IC50) in series [1] of 0.688 nM. In series [2], the AUC(0-t) turned out to be 2490 ng·h/mL, the highest level (Cmax) was 323 ng/mL, the MRT stood at 8.3 h and the time to peak (Tmax) is 4 h. Also, the half-life in series [2] is 5.2 h. Also, the EC50 in series [3] turned out to be 258 nM.
Consider `COc1cc(/C(F)=C/c2cccc(-c3cccc(NC(=O)c4nc5c(n4C)CCN(CCC46CCC(C(=O)O)(CC4)C6)C5)c3Cl)c2Cl)ncc1CN1CCC(C)(O)C1` (centres unmarked) [Example 49, (Z)-4-(2-(2-((2,2′-dichloro-3′-(2-fluoro-2-(5-((3-hydroxy-3-methylpyrrolidin-1-yl)methyl)-4-methoxypyridin-2-yl)vinyl)-[1,1′-biphenyl]-3-yl)carbamoyl)-1-methyl-1,4,6,7-tetrahydro-5H-imidazo[4,5-c]pyridin-5-yl)ethyl)bicyclo[2.2.1]heptane-1-carboxylic acid], for which the half-inhibitory concentration (IC50) in series [1] amounted to 0.232 nM. Also, in series [2], the AUC(0-t) came to 15100 ng·h/mL, the peak concentration (Cmax) came out at 1010 ng/mL, the MRT worked out at 7.4 h and the Tmax is 2 h. Besides, in series [2], the half-life was 4 h. The EC50 in series [3] was 46.2 nM.
Turning to `COc1cc(/C(F)=C/c2cccc(-c3cccc(NC(=O)c4nc5c(n4C)CCN(CCC46CCC(C(=O)O)(CC4)C6)C5)c3Cl)c2Cl)ncc1CN1CCCC1` [Example 58, (Z)-4-(2-(2-((2,2′-dichloro-3′-(2-fluoro-2-(4-methoxy-5-(pyrrolidin-1-ylmethyl)pyridin-2-yl)vinyl)-[1,1′-biphenyl]-3-yl)carbamoyl)-1-methyl-1,4,6,7-tetrahydro-5H-imidazo[4,5-c]pyridin-5-yl)ethyl) bicyclo[2.2.1]heptane-1-carboxvlic acid], in series [1], the IC50 came to 0.193 nM. Besides, in series [2], the AUC(0-t) turned out to be 1950 ng·h/mL, the highest level (Cmax) was 173 ng/mL, the MRT came out at 9.6 h and the time of peak concentration (Tmax) was 6 h. Also, the half-life in series [2] was 5 h. Also, the EC50 in series [3] stood at 44.1 nM.
On to `COc1cc(/C(F)=C/c2cccc(-c3cccc(NC(=O)c4nc5c(n4C)CCN(CCC46CCC(C(=O)O)(CC4)C6)C5)c3Cl)c2Cl)ncc1CN1CC[C@@H](C(=O)O)C1` [Example 73, (R,Z)-1-((6-(2-(3′-(5-(2-(4-carboxybicyclo[2.2.1]heptan-1-yl)ethyl)-1-methyl-4,5,6,7-tetrahydro-1H-imidazo[4,5-c]pyridine-2-carboxamido)-2,2′-dichloro-[1,1′-biphenyl]-3-yl)-1-fluorovinyl)-4-methoxypyridin-3-yl)methyl)pyrrolidine-3-carboxylic acid], for which, in series [1], the IC50 amounted to 0.186 nM. For the same compound, in series [2], the area under the curve AUC(0-t) came to 590 ng·h/mL, the peak level (Cmax) was 442 ng/mL, the MRT is 2 h and the time of peak concentration (Tmax) was 0.5 h. Besides, the half-life in series [2] was 1.1 h. The 50% effective concentration (EC50) in series [3] worked out at 50.6 nM.
`COc1cc(/C(F)=C/c2cccc(-c3cccc(NC(=O)c4nc5c(n4C)CCN(CCC46CCC(C(=O)O)(CC4)C6)C5)c3Cl)c2Cl)ncc1CN1CC[C@@](C)(C(=O)O)C1` [Example 75, (R,Z)-1-((6-(2-(3′-(5-(2-(4-carboxybicyclo[2.2.1]heptan-1-yl)ethyl)-1-methyl-4,5,6,7-tetrahydro-1H-imidazo[4,5-c]pyridine-2-carboxamido)-2,2′-dichloro-[1,1′-biphenyl]-3-yl)-1-fluorovinyl)-4-methoxypyridin-3-yl)methyl)-3-methylpyrrolidine-3-carboxylic acid] displayed an IC50 in series [1] of 0.185 nM. In series [2], the area under the curve AUC(0-t) was determined as 2650 ng·h/mL, the peak level (Cmax) was 806 ng/mL, the MRT worked out at 2.9 h and the time of peak concentration (Tmax) was 1.8 h. This compound had a half-life in series [2] of 1.8 h. Further, in series [3], the 50% effective concentration (EC50) turned out to be 54.4 nM.

The record behind these values is US12473282B2, “Biphenyl fluorine double bond derivative, preparation method therefor, and pharmaceutical application thereof” (Abbisko Therapeutics Co., Ltd., priority 2020, dated 2025).
